Activity calls are given as the source filed them. The rule behind the calls is not given here.
How the values were obtained:
H4 = assay: Antiproliferative activity against human H4 cells assessed as inhibition of cell growth measured after 72 hrs by CCK-8 assay; format: functional, cell-based; conditions: H4, 72 h
LN-229 [1] = assay: Antiproliferative activity against human LN-229 cells assessed as inhibition of cell growth measured after 72 hrs by CCK-8 assay; format: functional, cell-based; conditions: LN-229, 72 h
Hs 683 = assay: Antiproliferative activity against human Hs 683 cells assessed as inhibition of cell growth measured after 72 hrs by CCK-8 assay; format: functional, cell-based; conditions: Hs 683, 72 h
U-251 = assay: Antiproliferative activity against human U-251MG cells assessed as inhibition of cell growth measured after 72 hrs by CCK-8 assay; format: functional, cell-based; conditions: U-251, 72 h
LN-229 [2] = assay: Antitumor activity against human LN-229 cells xenografted in BALB/c nude mouse assessed as tumor growth inhibition at 150 mg/kg, ip administered twice a week and measured every 2 days for 49 days relative to control; format: functional; conditions: LN-229, 1176 h, time 49 day, read-out: TGI
LN-229 [3] = assay: Antitumor activity against human LN-229 cells xenografted in BALB/c nude mouse assessed as reduction in proportion of Ki-67 positive cells at 150 mg/kg, ip administered twice a week and measured after 49 days by immunohistochemistry analysis; format: functional, organism-based; conditions: time 49.0 day
LN-229-Luc = assay: Antitumor activity against human Ln-229-Luc cells xenografted in BALB/c nude mouse assessed as increase in overall survival time at 150 mg/kg, ip administered twice a week and measured after 3 to 31 days; format: functional, organism-based; conditions: time 3-31 day
[4] = biological target: BUB3-interacting and GLEBS motif-containing protein ZNF207 (Homo sapiens, UniProt O43670); assay: Binding affinity to human ZNF207 assessed as dissociation constant by SPR analysis
BUB3-interacting and GLEBS motif-containing protein ZNF207, sequence (O43670 whole entry): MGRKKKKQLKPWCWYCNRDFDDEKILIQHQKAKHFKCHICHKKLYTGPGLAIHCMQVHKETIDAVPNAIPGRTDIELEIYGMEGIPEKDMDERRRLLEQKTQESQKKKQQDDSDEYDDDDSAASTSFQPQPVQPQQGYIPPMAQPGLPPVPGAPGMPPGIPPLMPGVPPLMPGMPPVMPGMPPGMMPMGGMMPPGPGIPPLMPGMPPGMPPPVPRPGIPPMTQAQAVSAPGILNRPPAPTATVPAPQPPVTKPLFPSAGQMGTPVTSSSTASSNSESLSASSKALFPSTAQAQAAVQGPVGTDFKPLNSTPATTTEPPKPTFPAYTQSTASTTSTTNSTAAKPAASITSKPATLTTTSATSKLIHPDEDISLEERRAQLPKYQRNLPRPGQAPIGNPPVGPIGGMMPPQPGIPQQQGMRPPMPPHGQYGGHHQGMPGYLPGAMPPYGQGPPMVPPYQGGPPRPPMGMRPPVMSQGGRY

Structure (SMILES)	IC50 (H4)	IC50 (LN-229 [1])	IC50 (Hs 683)	IC50 (U-251)	inhibition in vivo at 150 mg/kg (LN-229 [2])	Activity (LN-229 [3])	Activity (LN-229-Luc)	Kd [4]
N#CC1(C(=O)NCCc2ccc(F)cc2)CC2(Br)c3ccccc3C1c1ccccc12 (racemic)	15.3 µM	14.6 µM	19.8 µM	21.4 µM				
N#CC1(C(=O)NCCS(=O)(=O)c2ccc(Cl)cc2)CC2(Br)c3ccccc3C1c1ccccc12 (racemic)	15.3 µM	9.14 µM	10.4 µM	23.5 µM				
Cc1ccc(CCNC(=O)C2(C#N)CC3c4ccccc4C2c2ccccc23)cc1 (racemic)	> 80 µM	60.8 µM	39.9 µM	> 80 µM				
N#CC1(C(=O)NCCc2ccccc2F)CC2(Br)c3ccccc3C1c1ccccc12 (racemic)	> 80 µM	> 80 µM	> 80 µM	> 80 µM				
N#CC1(C(=O)NCCc2ccc3c(c2)OCO3)CC2c3ccccc3C1c1ccccc12 (racemic)	> 80 µM	36.8 µM	44 µM	> 80 µM				
N#CC1(C(=O)NCc2cccc(Cl)c2Cl)CC2c3ccccc3C1c1ccccc12 (racemic)	> 80 µM	> 80 µM	> 80 µM	> 80 µM				
N#CC1(C(=O)NCCc2ccccc2F)CC2c3ccccc3C1c1ccccc12 (racemic)	26 µM	49 µM	> 80 µM	38.1 µM				
N#CC1(C(=O)NCCc2ccc(F)cc2)CC2(CO)c3ccccc3C1c1ccccc12 (racemic)	30.7 µM	15 µM	21.8 µM	39.8 µM				
N#CC1(C(=O)NCc2ccccc2)CC2c3ccccc3C1c1ccccc12 (racemic)	> 80 µM	> 80 µM	> 80 µM	> 80 µM				
COc1ccc(NC(=O)C2(C#N)CC3c4ccccc4C2c2ccccc23)cc1 (racemic)	> 80 µM	> 80 µM	> 80 µM	> 80 µM				
COc1cc(NC(=O)C2(C#N)CC3c4ccccc4C2c2ccccc23)cc(OC)c1OC (racemic)	> 80 µM	> 80 µM	> 80 µM	> 80 µM				
N#CC1(C(=O)NCCCc2ccc(Br)cc2)CC2(Br)c3ccccc3C1c1ccccc12 (racemic)	53.1 µM	24.6 µM	47.3 µM	37.7 µM				
N#CC1(C(=O)NCCc2ccc(F)cc2)CC2c3ccccc3C1c1ccccc12 (racemic)	35.2 µM	32.5 µM	43.6 µM	52.3 µM				
N#CC1(C(=O)NCCc2cccc(F)c2)CC2c3ccccc3C1c1ccccc12 (racemic)	50 µM	33 µM	46.6 µM	40.5 µM				
Cc1ccccc1NC(=O)C1(C#N)CC2c3ccccc3C1c1ccccc12 (racemic)	> 80 µM	> 80 µM	> 80 µM	> 80 µM				
N#CC1(C(=O)NCCC2CCN(Cc3ccc(F)cc3)CC2)CC2(Br)c3ccccc3C1c1ccccc12 (racemic)	18 µM	18.7 µM	21.9 µM	18.1 µM				
N#CC1(C(=O)NCC2CCN(Cc3ccc(F)cc3)CC2)CC2(Br)c3ccccc3C1c1ccccc12 (racemic)	> 80 µM	> 80 µM	> 80 µM	> 80 µM				
CC12CC(C#N)(C(=O)NCCc3ccc(F)cc3)C(c3ccccc31)c1ccccc12 (racemic)	22.3 µM	28.9 µM	24.6 µM	18.7 µM				
N#CC1(C(=O)NCCc2cccc(Cl)c2)CC2c3ccccc3C1c1ccccc12 (racemic)	18.8 µM	36.6 µM	> 80 µM	54.3 µM				
N#CC1(C(=O)NCCCc2ccccc2)CC2(Br)c3ccccc3C1c1ccccc12 (racemic)	49 µM	19.8 µM	> 80 µM	45.8 µM				
N#CC1(C(=O)Nc2ccc3c(c2)OCO3)CC2c3ccccc3C1c1ccccc12 (racemic)	20 µM	45.5 µM	> 80 µM	72.6 µM				

Structure (SMILES)	IC50 (H4)	IC50 (LN-229 [1])	IC50 (Hs 683)	IC50 (U-251)	inhibition in vivo at 150 mg/kg (LN-229 [2])	Activity (LN-229 [3])	Activity (LN-229-Luc)	Kd [4]
N#CC1(C(=O)NCCC(=O)Nc2ccc(F)cc2)CC2(Br)c3ccccc3C1c1ccccc12 (racemic)	15.8 µM	14.6 µM	12.6 µM	49.8 µM				
COc1ccc(NC(=O)C2(C#N)CC3c4ccccc4C2c2ccccc23)cc1C (racemic)	> 80 µM	> 80 µM	> 80 µM	> 80 µM				
N#CC1(C(=O)NCCc2ccc(F)cc2)CC2(Br)c3ccccc3C1(Br)c1ccccc12 (racemic)	54 µM	> 80 µM	> 80 µM	> 80 µM				
N#CC1(C(=O)Nc2ccc(F)cc2)CC2c3ccccc3C1c1ccccc12 (racemic)	> 80 µM	> 80 µM	> 80 µM	> 80 µM				
N#CC1(C(=O)NCCS(=O)(=O)Nc2ccc(F)cc2)CC2(Br)c3ccccc3C1c1ccccc12 (racemic)	21.9 µM	12.7 µM	17.8 µM	21.2 µM				
Cn1nnc2c(C(N)=O)ncn2c1=O [TEMOZOLOMIDE]	47.9 µM	54.1 µM	47.2 µM	43.5 µM	69.6%	Active	Active	
N#CC1(C(=O)NCCS(=O)(=O)Nc2ccccc2)CC2(Br)c3ccccc3C1c1ccccc12 (racemic)	22.7 µM	26.6 µM	15.2 µM	23.2 µM				
N#CC1(C(=O)NCCc2ccc(Br)cc2)CC2(Br)c3ccccc3C1c1ccccc12 (racemic)	10.3 µM	9.73 µM	8.43 µM	30 µM				
O=C(NCCc1ccc(F)cc1)C1(Cl)CC2(Br)c3ccccc3C1c1ccccc12 (racemic)	> 80 µM	> 80 µM	> 80 µM	> 80 µM				
CC(=O)C12CC(C#N)(C(=O)NCCc3ccc(F)cc3)C(c3ccccc31)c1ccccc12 (racemic)	24.7 µM	29.5 µM	20.7 µM	18.8 µM				
O=C(NCCC1CCN(Cc2ccccc2)CC1)C1(Cl)CC2(Br)c3ccccc3C1c1ccccc12 (racemic)	19.1 µM	12.4 µM	38.7 µM	24.1 µM				
N#CC1(C(=O)NCCC2CCN(Cc3ccccc3)CC2)CC2c3ccccc3C1c1ccccc12 (racemic)	26.6 µM	11.6 µM	19.1 µM	35.9 µM				
N#CC1(C(=O)NCCSc2ccccc2)CC2(Br)c3ccccc3C1c1ccccc12 (racemic)	16.9 µM	14.4 µM	11.6 µM	16.8 µM				
COc1cc(NC(=O)C2(C#N)CC3c4ccccc4C2c2ccccc23)cc(OC)c1 (racemic)	> 80 µM	> 80 µM	> 80 µM	> 80 µM				
N#CC1(C(=O)Nc2ccc([N+](=O)[O-])cc2)CC2c3ccccc3C1c1ccccc12 (racemic)	25.3 µM	19.4 µM	26.4 µM	13.5 µM				2.4 µM
N#CC1(C(=O)NCCc2ccc(F)cc2)CC2(CCl)c3ccccc3C1c1ccccc12 (racemic)	32.6 µM	60.2 µM	52.8 µM	34.9 µM				
N#CC1(C(=O)Nc2ccc(N)cc2)CC2c3ccccc3C1c1ccccc12 (racemic)	61.7 µM	> 80 µM	> 80 µM	> 80 µM				
N#CC1(C(=O)NCCc2ccc(Cl)cc2)CC2(Br)c3ccccc3C1c1ccccc12 (racemic)	25 µM	7.85 µM	23.1 µM	24 µM				
N#CC1(C(=O)NCCc2ccc([N+](=O)[O-])cc2)CC2c3ccccc3C1c1ccccc12 (racemic)	36.9 µM	23.8 µM	> 80 µM	48.3 µM				
N#CC1(C(=O)NC2CCN(Cc3ccccc3)CC2)CC2(Br)c3ccccc3C1c1ccccc12 (racemic)	9.84 µM	7.36 µM	11.3 µM	25.1 µM				
N#CC1(C(=O)NCC2CCN(Cc3ccccc3)CC2)CC2(Br)c3ccccc3C1c1ccccc12 (racemic)	3.32 µM	5.94 µM	14.9 µM	15.7 µM				
